Data from ChEMBL document CHEMBL3045971, “Normalizing effects of Costus speciosus rhizome crude extracts and its fractions on diabetic complications in STZ-induced diabetic rats” (Med Chem Res, 2011).

Columns and labels:
Rattus norvegicus [1] = test: Antidiabetic activity in Rattus norvegicus Wistar (rat) assessed as STZ-induced plasma glucose level at 20 mg/kg, po administered for 15 days by glucose oxidase method (reference value: 377.3 +/- 10.5 mg/dl); assay type: functional
Rattus norvegicus [2] = test: Antidiabetic activity in Rattus norvegicus Wistar (rat) assessed as STZ-induced plasma glucose level at 5 mg/kg, po administered for 15 days by glucose oxidase method (reference value: 377.3 +/- 10.5 mg/dl); assay type: functional
Rattus norvegicus [3] = test: Antidiabetic activity in Rattus norvegicus Wistar (rat) assessed as STZ-induced plasma glucose level at 10 mg/kg, po administered for 15 days by glucose oxidase method (reference value: 377.3 +/- 10.5 mg/dl); assay type: functional
Rattus norvegicus [4] = test: Antidiabetic activity in po dosed Rattus norvegicus Wistar (rat) assessed as decrease in STZ-induced plasma glucose level administered for 15 days by glucose oxidase method; assay type: functional, organism-based
Rattus norvegicus [5] = test: Effect on plasma glucose level in normal Rattus norvegicus Wistar (rat) at 20 mg/kg, po administered for 15 days by glucose oxidase method (reference value: 85.7 +/- 7.2 mg/dl); assay type: organism-based; design: dose 20 mg/kg, route oral; conditions: in vivo, 360 h

| Activity (Rattus norvegicus [4]) | Activity (Rattus norvegicus [5]) | SMILES | Activity (Rattus norvegicus [1]) | Activity (Rattus norvegicus [2]) | Activity (Rattus norvegicus [3]) |
| --- | --- | --- | --- | --- | --- |
| Dose-dependent effect | 85.5 mg/dL | C=C1C(=O)O[C@@H]2/C=C(\C)CC/C=C(\C)CC[C@@H]12 [COSTUNOLIDE] | 167 mg/dL | 285.5 mg/dL | 240.7 mg/dL |
| Dose-dependent effect | 95.57 mg/dL | C=C1CC[C@H]2C(C)=CC[C@H]3C(=C)C(=O)O[C@@H]3[C@@H]12 [EREMANTHIN] | 188.76 mg/dL | 308.41 mg/dL | 265.27 mg/dL |
